Assay [1] deals with T1, His6-TEV-PPARγ-(234-505) (Homo sapiens, UniProt P37231).
T1 construct: The His6-TEV-PPARγ-(234-505) protein for assay was expressed and purified; TEV cleavage site (N); made in house
T1 sequence (P37231 234-505): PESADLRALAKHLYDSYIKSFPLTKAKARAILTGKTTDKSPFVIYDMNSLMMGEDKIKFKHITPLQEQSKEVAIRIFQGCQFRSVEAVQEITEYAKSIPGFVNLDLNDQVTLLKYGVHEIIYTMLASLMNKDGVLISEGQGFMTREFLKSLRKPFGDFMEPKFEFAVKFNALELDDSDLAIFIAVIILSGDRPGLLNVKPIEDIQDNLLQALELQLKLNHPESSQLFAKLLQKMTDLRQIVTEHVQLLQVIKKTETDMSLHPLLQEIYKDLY
The assay can be described thus: TR-FRET Assay to Measure Co-R Peptide Recruitment to PPARγ. The assay is classed as biochemical. Particulars: Co-R peptide (SMRT-ID2) recruitment, top final concentration 20 μM, read-out: TR-FRET i-Ag, AC50. The gist of the method: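 Corepressor recruitment is measured by adding terbium-labeled anti-His antibody and FITC SMRT-ID2 peptide, at 5 and 200 nM final, after a 20-minute room-temperature protein–compound incubation. After one further hour, signal is converted to percent response between DMSO and 500 nM T0070907 wells.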
On the technique in general: TR-FRET usually uses a lanthanide donor and a delayed reading to cut background.

Assay [2] concerns UM-UC-9 engineered cells. The assay can be described thus: Cell proliferation / short-term viability assay, CellTiter-Glo 144 h. Particulars: read-out: CTGlo 144 h UMUC9.5, G150. Type of assay: cell-based, human. An outline of the steps: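 Viability read by CellTiter-Glo 2.0 luminescence at day 7 versus DMSO-vehicle wells and a T0 plate measured on day 0. Cells: UM-UC-9 engineered assay-ready stocks, 500 cells/well in high-glucose DMEM with 10% FBS, 37° C, 5% CO2.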
Background: In ATP-based viability assays light output follows the ATP content of the culture.

Each structure is given as a SMILES string. Where two headings read alike, the source gives them in different places.

Consider `COc1cc(-c2cc(C(=O)N3CC[C@H](C(=O)NCc4nc(C)nn4C(C)C)CC34CC4)n[nH]2)c(F)cn1` [Example 473, (S)-4-(5-(5-fluoro-2-methoxypyridin-4-yl)-1H-pyrazole-3-carbonyl)-N-((1-isopropyl-3-methyl-1H-1,2,4-triazol-5-yl)methyl)-4-azaspiro[2.5]octane-7-carboxamide], for which the AC50 in assay [1] came to 443 nM. For the same compound, the IC50 in assay [2] (Homo sapiens, UM-UC-9, 144 h) is 3390 nM.
The like results for `COc1cc(-c2cc(C(=O)N3CCC(C(=O)NCc4cccc(C(F)(F)F)n4)CC3)n[nH]2)c(Cl)cn1` [Example 129, 1-(5-(5-chloro-2-methoxypyridin-4-yl)-1H-pyrazole-3-carbonyl)-N-((6 (trifluoromethyl)pyridin-2-yl)methyl)piperidine-4-carboxamide] were, in that order, 273 nM and 1020 nM.
On the same counts, the results for `CO[C@]1(C(F)(F)F)CC[C@H](NC(=O)[C@@H]2CCN(C(=O)c3cc(-c4cc(C)ncn4)[nH]n3)C3(CC3)C2)CC1` (single isomer, unassigned) [Example 309-D] are 1320 nM and 3680 nM.
Turning to `COc1cc(-c2cc(C(=O)N3CCC(C(=O)NCc4ncccc4F)CC3)n[nH]2)c(Cl)cn1` [Example 146, 1-(5-(5-chloro-2-methoxypyridin-4-yl)-1H-pyrazole-3-carbonyl)-N-((3-fluoropyridin-2-yl)methyl)piperidine-4-carboxamide], the AC50 in assay [1] worked out at 262 nM. Also, the IC50 in assay [2] (Homo sapiens, UM-UC-9, 144 h) came to 1410 nM.
Turning to `COc1cc(-c2cc(C(=O)N3CC[C@H](C(=O)NCc4ncccc4C(F)(F)F)CC34CC4)[nH]n2)c(F)cn1` [Example 510, (S)-4-(3-(5-fluoro-2-methoxypyridin-4-yl)-1H-pyrazole-5-carbonyl)-N-((3-(trifluoromethyl)pyridin-2-yl)methyl)-4-azaspiro[2.5]octane-7-carboxamide], in assay [1], the AC50 worked out at 3.8 nM. Further, the IC50 in assay [2] (Homo sapiens, UM-UC-9, 144 h) came out at 1.8 nM.
The like results for `COc1cc(-c2cc(C(=O)N3CCC(C(=O)NC4CCOc5ccc(F)cc54)CC3)n[nH]2)c(Cl)cn1` (racemic) [Example 195, 1-(5-(5-chloro-2-methoxypyridin-4-yl)-1H-pyrazole-3-carbonyl)-N-(6-fluorochroman-4-yl)piperidine-4-carboxamide] were, in that order, 212 nM and 348 nM.
On to `COc1cc(-c2cc(C(=O)N3CCC(C(=O)NC4CCCC(O)(C(F)(F)F)C4)CC34CC4)n[nH]2)c(F)cn1` (mixture of isomers) [Example 524], for which the AC50 in assay [1] was found to be 128 nM. Moreover, the IC50 in assay [2] was determined as 341 nM.
Consider `COc1cc(-c2cc(C(=O)N3CC[C@H](C(=O)NCc4ncc(N5CC(C)NC(C)C5)cc4Cl)CC34CC4)n[nH]2)c(F)cn1` (stereo partly drawn) [Example 434, (7S)—N-((3-chloro-5-(3,5-dimethylpiperazin-1-yl)pyridin-2-yl)methyl)-4-(5-(5-fluoro-2-methoxypyridin-4-yl)-1H-pyrazole-3-carbonyl)-4-azaspiro[2.5]octane-7-carboxamide], for which the AC50 in assay [1] was found to be 11.9 nM. In assay [2] (Homo sapiens, UM-UC-9, 144 h), the IC50 was 45.3 nM.
Regarding `COc1cc(-c2cc(C(=O)N3CCC(NC(=O)C4CCC(O)(C(F)(F)F)CC4)CC34CC4)n[nH]2)c(F)cn1` (single isomer, unassigned) [Example 347-C], in assay [1], the AC50 came out at 5080 nM. Further, in assay [2], the IC50 was above 10000 nM.
As to `COc1cc(-c2cc(C(=O)N3CCC(C(=O)Nc4cccc(C(F)F)c4)CC3)n[nH]2)c(Cl)cn1` [Example 147, 1-(5-(5-chloro-2-methoxypyridin-4-yl)-1H-pyrazole-3-carbonyl)-N-(3-(difluoromethyl)phenyl)piperidine-4-carboxamide], in assay [1], the AC50 worked out at 268 nM. Moreover, in assay [2] (Homo sapiens, UM-UC-9, 144 h), the IC50 came out at 955 nM.
On the same counts, the results for `COc1cc(-c2cc(C(=O)N3CCC(C(=O)NCC4(C)OCCCO4)CC3)n[nH]2)c(Cl)cn1` [Example 216, 1-(5-(5-chloro-2-methoxypyridin-4-yl)-1H-pyrazole-3-carbonyl)-N-((2-methyl-1,3-dioxan-2-yl)methyl)piperidine-, 1-carboxamide] are 697 nM and 3100 nM.
The like results for `COc1cc(-c2cc(C(=O)N3CCC(C(=O)N[C@H]4CC[C@](C)(O)CC4)CC3)n[nH]2)c(Cl)cn1` [Example 198, 1-(5-(5-chloro-2-methoxypyridin-4-yl)-1H-pyrazole-3-carbonyl)-N-((1r,4r)-4-hydroxy-4-methylcyclohexyl)piperidine-4-carboxamide] were, in that order, 917 nM and 4160 nM.
On the same counts, the results for `COc1cc(-c2cc(C(=O)N3[C@@H]4CC[C@H]3C[C@H](C(=O)NC3CCC5(CC3)OCC5(F)F)C4)n[nH]2)c(F)cn1` (mixture of isomers) [Example 307, (1R,3s,5S)—N-(3,3-difluoro-1-oxaspiro[3.5]nonan-7-yl)-8-(5-(5-fluoro-2-methoxypyridin-4-yl)-1H-pyrazole-3-carbonyl)-8-azabicyclo[3.2.1]octane-3-carboxamide] are 22.1 nM and 173 nM.
In the case of `COc1cc(-c2cc(C(=O)N3CC[C@H](C(=O)NCC45COC(C(F)(F)F)(C4)C5)CC34CC4)n[nH]2)c(F)cn1` [Example 443, (S)-4-(5-(5-fluoro-2-methoxypyridin-4-yl)-1H-pyrazole-3-carbonyl)-N-((1-(trifluoromethyl)-2-oxabicyclo[2.1.1]hexan-4-yl)methyl)-4-azaspiro[2.5]octane-7-carboxamide], the AC50 in assay [1] came to 21.4 nM. Also, the IC50 in assay [2] (Homo sapiens, UM-UC-9, 144 h) is 40.3 nM.
For the compound `COc1cc(-c2cc(C(=O)N3CC[C@H](C(=O)Nc4cnn5cc(C(C)O)ccc45)CC34CC4)n[nH]2)c(F)cn1` (single isomer, unassigned) [Example 495-B], the AC50 in assay [1] came to 13.3 nM. For the same compound, in assay [2], the IC50 came to 144 nM.
For `COc1cc(-c2cc(C(=O)N3CCC(C(=O)NC4COC(C)(C)C4)CC3)n[nH]2)c(Cl)cn1` (racemic) [Example 213, 1-(5-(5-chloro-2-methoxypyridin-4-yl)-1H-pyrazole-3-carbonyl)-N (5,5-dimethyltetrahydrofuran-3-yl)piperidine-4-carboxamide], in assay [1], the AC50 amounted to 571 nM. The IC50 in assay [2] (Homo sapiens, UM-UC-9, 144 h) came to 1640 nM.
Regarding `COc1cc(-c2cc(C(=O)N3CCC(C(=O)NC4CS(=O)(=O)N(C)c5ccccc54)CC3)n[nH]2)c(Cl)cn1` (racemic) [Example 231, 1-(5-(5-chloro-2-methoxypyridin-4-yl)-1H-pyrazole-3-carbonyl)-N-(1-methyl-2,2-dioxido-3,4-dihydro-1H-benzo[c][1,2]thiazin-4-yl)piperidine-4-carboxamide], the AC50 in assay [1] was found to be 999 nM. Besides, the IC50 in assay [2] (Homo sapiens, UM-UC-9, 144 h) amounted to 5440 nM.
As to `COc1cc(-c2cc(C(=O)N3CCC(C(=O)NC(C)c4cccc(Cl)c4)CC3)n[nH]2)c(Cl)cn1` (single isomer, unassigned) [Example 115-A], the AC50 in assay [1] (listed as 115a) is 717 nM. Further, the IC50 in assay [2] (listed as 115a) was 1320 nM.
On to `COc1cc(-c2cc(C(=O)N3CC[C@@H](C(=O)NCC45CCC(O)(CC4)CC5)CC34CC4)n[nH]2)c(F)cn1` (single isomer, unassigned) [Example 313-A], for which the AC50 in assay [1] was found to be 1290 nM. For the same compound, the IC50 in assay [2] (Homo sapiens, UM-UC-9, 144 h) is 3890 nM.
On the same counts, the results for `COc1cc(-c2cc(C(=O)N3CC[C@H](C(=O)NCC45CCC(O)(C4)C5)CC34CC4)n[nH]2)c(F)cn1` [Example 334, (S)-4-(5-(5-fluoro-2-methoxypyridin-4-yl)-1H-pyrazole-3-carbonyl)-N-((4-hydroxybicyclo[2.1.1]hexan-1-yl)methyl)-4-azaspiro[2.5]octane-7-carboxamide] are 72.6 nM and 284 nM.
On the same counts, the results for `COc1cc(-c2cc(C(=O)N3CC[C@H](C(=O)N[C@H]4CC[C@@](OC[C@H](C)N)(C(F)(F)F)CC4)CC34CC4)n[nH]2)c(F)cn1` [Example 352, (S)—N-((1548)-4-((S)-2-aminopropoxy)-4-(trifluoromethyl)cyclohexyl)-4-(5-(5-fluoro-2-methoxypyridin-4-yl)-1H-pyrazole-3-carbonyl)-4-azaspiro[2.5]octane-7-carboxamide] are 7.7 nM and 134 nM.
The like results for `COc1cc(-c2cc(C(=O)N3CCC(C(=O)NCc4ccc5[nH]nc(C)c5c4)CC3)n[nH]2)c(F)cn1` [Example 204, 1-[5-(5-fluoro-2-methoxypyridin-4-yl)-1H-pyrazole-3-carbonyl]-N-[(3-methyl-1H-indazol-5-yl)methyl]piperidine-4-carboxamide] were, in that order, 20.2 nM and 83.3 nM.
On to `COc1cc(-c2cc(C(=O)N3CC[C@H](C(=O)NCc4[nH]cnc4C(F)(F)F)CC34CC4)[nH]n2)c(F)cn1` [Example 503, (S)-4-(3-(5-fluoro-2-methoxypyridin-4-yl)-1H-pyrazole-5-carbonyl)-N-((4-(trifluoromethyl)-1H-imidazol-5-yl)methyl)-4-azaspiro[2.5]octane-7-carboxamide], for which, in assay [1], the AC50 stood at 8.1 nM. In assay [2] (Homo sapiens, UM-UC-9, 144 h), the IC50 was found to be 146 nM.

Source of the values: US12606541B2, “PPARg modulators and methods of use” (Eisai R&D Management Co., Ltd., priority 2020, dated 2026).
